Measured values reported in patent US10131657B2, “Bromodomain inhibitors” (AbbVie Inc., priority 2013, dated 2018).

Each molecule was assayed on breast cancer cell line MX-1 (assay: MX-1 cell line proliferation assay, Method A). Details: Homo sapiens, MX1; MX-1 cells, 96-well, 72 hours, Cell Titer Glo; read-out: Cellular proliferation: EC50 Method A.
Assay type: cell-based
Description: The impact of compounds of the Examples on cancer cell proliferation was determined using the breast cancer cell line MX-1 (ATCC) in a 3-day proliferation assay and the data are reported in Table 1.
MX-1 cells were maintained in RPMI 1640 medium (Sigma) supplemented with 10% FBS at 37° C. and an atmosphere of 5% CO2. For compound testing, MX-1 cells were plated in 96-well black bottom plates at a density of 5000 cells/well in 90 μL of culture media and incubated at 370 overnight to allow cell adhesion and spreading. Compound dilution series were prepared in DMSO via a 3-fold serial dilution from 3 mM to 0.1 μM. The DMSO dilution series were then diluted 1:100 in phosphate buffered saline, and 10 μL of the resulted solution were added to the appropriate wells of the MX-1 cell plate. The final compound concentrations in the wells were 3, 1, 0.3, 0.1, 0.03, 0.01, 0.003, 0.001, 0.0003 and 0.0001 μM.
Luminescence readings from the Cell Titer Glo assay were normalized to the DMSO treated cells and analyzed using the GraphPad Prism software with sigmoidal curve fitting to obtain ECs50s. The minimum significant ratio (MSR) was determined to evaluate assay reproducibility (Eastwood et al., (2006) J Biomol Screen, 11: 253-261).

Row | Compound | EC50 [nM]
1 | Cc1cc(-c2ccc(-c3cn(C)c(=O)c4[nH]ccc34)c(OCC3CC3)c2)[nH]n1 [Example 1, 4-[2-(cyclopropylmethoxy)-4-(3-methyl-1H-pyrazol-5-yl)phenyl]-6-methyl-1,6-dihydro-7H-pyrrolo[2,3-c]pyridin-7-one] | 151
2 | CCS(=O)(=O)Nc1cc(-c2cn(C)c(=O)c3[nH]ccc23)c(Oc2ccc(F)cc2F)cc1CN(C)C [Example 2, N-[4-(2,4-difluorophenoxy)-2-[(dimethylamino)methyl]-5-(6-methy-7-oxo-6,7-dihydro-1H-pyrrolo[2,3-c]pyridin-4-yl)phenyl]ethanesulfonamide] | 110
3 | CCS(=O)(=O)Nc1cc(-c2cn(C)c(=O)c3[nH]ccc23)c(Oc2ccc(F)cc2F)cc1CN1CCCCC1 [Example 3, N-[4-(2,4-difluorophenoxy)-5-(6-methyl-7-oxo-6,7-dihydro-1H-pyrrolo[2,3-c]pyridin-4-yl)-2-(piperidin-1-ylmethyl)phenyl]ethanesulfonamide] | 36.8
4 | CCS(=O)(=O)Nc1cc(-c2cn(C)c(=O)c3[nH]ccc23)c(Oc2ccc(F)cc2F)cc1CN1CCOCC1 [Example 4, N-[4-(2,4-difluorophenoxy)-5-(6-methyl-7-oxo-6,7-dihydro-1H-pyrrolo[2,3-c]pyridin-4-yl)-2-(morpholin-4-ylmethyl)phenyl]ethanesulfonamide] | 16.3
5 | CCS(=O)(=O)Nc1cc(-c2cn(C)c(=O)c3[nH]ccc23)c(Oc2ccc(F)cc2F)cc1CN1CCN(C)CC1 [Example 5, N-{4-(2,4-difluorophenoxy)-5-(6-methyl-7-oxo-6,7-dihydro-1H-pyrrolo[2,3-c]pyridin-4-yl)-2-[(4-methylpiperazin-1-yl)methyl]phenyl}ethanesulfonamide] | 40.1
6 | CCS(=O)(=O)Nc1cc(-c2cn(C)c(=O)c3[nH]ccc23)c(Oc2ccc(F)cc2F)cc1CO [Example 6, N-[4-(2,4-difluorophenoxy)-2-(hydroxymethyl)-5-(6-methyl-7-oxo-6,7-dihydro-1H-pyrrolo[2,3-c]pyridin-4-yl)phenyl]ethanesulfonamide] | 29.1
7 | CCS(=O)(=O)Nc1cc(-c2cn(C)c(=O)c3[nH]ccc23)c(Oc2ccc(F)cc2F)cc1CNC1CCCC1 [Example 7, N-{2-[(cyclopentylamino)methyl]-4-(2,4-difluorophenoxy)-5-(6-methyl-7-oxo-6,7-dihydro-1H-pyrrolo[2,3-c]pyridin-4-yl)phenyl}ethanesulfonamide] | 139
8 | CCS(=O)(=O)Nc1cc(-c2cn(C)c(=O)c3[nH]ccc23)c(Oc2ccc(F)cc2F)cc1C(N)=O [Example 8, 5-(2,4-difluorophenoxy)-2-[(ethylsulfonyl)amino]-4-(6-methyl-7-oxo-6,7-dihydro-1H-pyrrolo[2,3-c]pyridin-4-yl)benzamide] | 44.9
9 | CCS(=O)(=O)Nc1cc(-c2cn(C)c(=O)c3[nH]ccc23)c(Oc2ccc(F)cc2F)cc1C(=O)NC1CCCC1 [Example 9, N-cyclopentyl-5-(2,4-difluorophenoxy)-2-[(ethylsulfonyl)amino]-4-(6-methyl-7-oxo-6,7-dihydro-1H-pyrrolo[2,3-c]pyridin-4-yl)benzamide] | 65.3
10 | CCS(=O)(=O)Nc1cc(-c2cn(C)c(=O)c3[nH]ccc23)c(Oc2ccc(F)cc2F)cc1C(=O)N(C)C [Example 10, 5-(2,4-difluorophenoxy)-2-[(ethylsulfonyl)amino]-N,N-dimethyl-4-(6-methyl-7-oxo-6,7-dihydro-1H-pyrrolo[2,3-c]pyridin-4-yl)benzamide] | 98.2
11 | CCS(=O)(=O)Nc1cc(-c2cn(C)c(=O)c3[nH]ccc23)c(Oc2ccc(F)cc2F)cc1C(=O)O [Example 11, 5-(2,4-difluorophenoxy)-2-[(ethylsulfonyl)amino]-4-(6-methyl-7-oxo-6,7-dihydro-1H-pyrrolo[2,3-c]pyridin-4-yl)benzoic acid] | 452

Results, then the molecule that gave them:

Row | EC50 [nM] | Compound
12 | 68.4 | CCS(=O)(=O)Nc1cc(-c2cn(C)c(=O)c3[nH]ccc23)c(Oc2ccc(F)cc2F)cc1C(=O)NC1CCOCC1 [Example 12, 5-(2,4-difluorophenoxy)-2-[(ethylsulfonyl)amino]-4-(6-methyl-7-oxo-6,7-dihydro-1H-pyrrolo[2,3-c]pyridin-4-yl)-N-(tetrahydro-2H-pyran-4-yl)benzamide]
13 | 307 | CCS(=O)(=O)Nc1cc(-c2cn(C)c(=O)c3[nH]ccc23)c(Oc2ccc(F)cc2F)cc1CNCCO [Example 13, N-[4-(2,4-difluorophenoxy)-2-{[(2-hydroxyethyl)amino]methyl}-5-(6-methyl-7-oxo-6,7-dihydro-1H-pyrrolo[2,3-c]pyridin-4-yl)phenyl]ethanesulfonamide]
14 | 184 | CCS(=O)(=O)Nc1cc(-c2cn(C)c(=O)c3[nH]ccc23)c(Oc2ccc(F)cc2F)cc1CN1CCCC1c1ccccc1 (centres unmarked) [Example 14, N-{4-(2,4-difluorophenoxy)-5-(6-methyl-7-oxo-6,7-dihydro-1H-pyrrolo[2,3-c]pyridin-4-yl)-2-[(2-phenylpyrrolidin-1-yl)methyl]phenyl}ethanesulfonamide]
15 | 105 | CCS(=O)(=O)Nc1cc(-c2cn(C)c(=O)c3[nH]ccc23)c(Oc2ccc(F)cc2F)c(C2CC2)c1 [Example 15, N-[3-cyclopropyl-4-(2,4-difluorophenoxy)-5-(6-methyl-7-oxo-6,7-dihydro-1H-pyrrolo[2,3-c]pyridin-4-yl)phenyl]ethanesulfonamide]
16 | 202 | CCS(=O)(=O)c1ccc(OCC2CC2(F)F)c(-c2cn(C)c(=O)c3[nH]c(CN4CCN(c5ccncc5)CC4)cc23)c1 (centres unmarked) [Example 16, 4-{2-[(2,2-difluorocyclopropyl)methoxy]-5-(ethylsulfonyl)phenyl}-6-methyl-2-{[4-(pyridin-4-yl)piperazin-1-yl]methyl}-1,6-dihydro-7H-pyrrolo[2,3-c]pyridin-7-one]
17 | 101 | CCS(=O)(=O)c1ccc(OCC2CC2(F)F)c(-c2cn(C)c(=O)c3[nH]c(CN4CCN(c5cccnc5)CC4)cc23)c1 (centres unmarked) [Example 20, 4-{2-[(2,2-difluorocyclopropyl)methoxy]-5-(ethylsulfonyl)phenyl}-6-methyl-2-{[4-(pyridin-3-yl)piperazin-1-yl]methyl}-1,6-dihydro-7H-pyrrolo[2,3-c]pyridin-7-one]
18 | 487 | Cn1cc(-c2cc(S(C)(=O)=O)ccc2Oc2cccc(C(=O)NC3CC3)c2)c2cc[nH]c2c1=O [Example 21, N-cyclopropyl-3-[2-(6-methyl-7-oxo-6,7-dihydro-1H-pyrrolo[2,3-c]pyridin-4-yl)-4-(methylsulfonyl)phenoxy]benzamide]
19 | > 1000 | CN1CCN(C(=O)c2cccc(Oc3ccc(S(C)(=O)=O)cc3-c3cn(C)c(=O)c4[nH]ccc34)c2)CC1 [Example 22, 6-methyl-4-[2-{3-[(4-methylpiperazin-1-yl)carbonyl]phenoxy}-5-(methylsulfonyl)phenyl]-1,6-dihydro-7H-pyrrolo[2,3-c]pyridin-7-one]
20 | > 1000 | Cn1cc(-c2cc(S(C)(=O)=O)ccc2Oc2cccc(C(=O)N3CCN(CCn4ccnc4)CC3)c2)c2cc[nH]c2c1=O [Example 23, 4-{2-[3-({4-[2-(1H-imidazol-1-yl)ethyl]piperazin-1-yl}carbonyl)phenoxy]-5-(methylsulfonyl)phenyl}-6-methyl-1,6-dihydro-7H-pyrrolo[2,3-c]pyridin-7-one]
